Assay results from patent publication US8715718B2, “Extracellular matrix production from nanoscale substrate” (Rutgers, The State University of New Jersey, priority 2006, dated 2014).

Experiments:
[1] = tested on: Human foreskin fibroblasts, HFF; assay: Fibronectin matrix assembly by HFF, immunofluorescence and image analysis; format: cell-based
Experimental: (§1) Labtek chamber slides (Nalge Nunc International, Rochester, N.Y.) were coated overnight at 4° C. with FNf-ANPs or FNf as described above to attain equivalent display with FNf. […] Fibroblasts were seeded at densities and incubated for times described in each figure legend. […] Samples were then incubated with primary antibodies in blocking buffer (3% BSA) for 1 hour, washed, and further incubated with the appropriate secondary antibodies for 1 hour. Where indicated, cells were also incubated with TexasRed X- or fluoroscein-conjugated phalloidin to visualize F-actin. Cells were examined using a Leica SP/2 Confocal Laser Scanning Microscope.

[2] = tested on: Human foreskin fibroblasts, HFF; assay: Cell morphology by F-actin staining and shape factor; format: cell-based
Experimental: as §1
To characterize the effect of nanoparticle display of FNf on early cellular responses, adhesion and morphology were examined. […] Next, we extended the culture time of human foreskin fibroblasts (“HFF”) on FNf-ANPs or equivalent FNf, and evaluated cellular morphology. HFF (2.3×10^4 cells/cm^2) were cultured for 5 hours on surfaces prepared as described in Materials and Methods, then stained for F-actin with Texas Red X-conjugated phalloidin. Bar, 40 μm.
(§2) To analyze cellular morphology, shape factors were quantified for all conditions.

[3] = tested on: Human foreskin fibroblasts, HFF; assay: Cell adhesion assay (hexosaminidase); format: cell-based
Experimental: To quantify cell attachment to FNf-ANPs, 96-well non-tissue culture dishes were coated overnight at 4° C. with FNf-ANPs or FNf as described above. Wells were washed with PBS and blocked with 1% bovine serum albumin. After washing with PBS, HFF were plated at 2.5×10^4 cells/well and incubated for 60 minutes at 37° C. Medium and unbound cells were removed by inversion of the plate and two washes with PBS. Quantification of the number of adherent cells was performed using the hexosaminidase assay. Briefly, substrate composed of a 1:1 mixture of 0.5% Triton-X 100 and 7.5 mM β-nitrophenyl N-acetyl β-D glucosaminide in 0.1 M citrate buffer, pH 5.0, was added to each well and incubated for 90 minutes at 37° C. The reaction was terminated with 50 mM glycine/5 mM EDTA, pH 10.4 and the absorbance read at 405 nm on a multiwell plate reader.
as §2

fibroblasts [4] = assay: Cell attachment to ligand-ANC (hexosaminidase assay); format: cell-based, human; conditions: 1 hour, equal ligand density, differential presentation
Experimental: To quantify cell attachment to ligand-ANC, 96-well non-tissue culture dishes were passively coated overnight at 4° C. with varying ligand density and presentation as described above. Wells were washed with PBS and blocked with 1% bovine serum albumin. After washing, fibroblasts were seeded at 25,000 cells/well and incubated for 1 hour at 37° C. Substrates were washed with PBS to remove unbound cells. Adhered cells were quantified using the hexosaminidase assay. Briefly, a substrate mixture composed of 1 part […] and 1 part 7.5 mM [3-nitrophenyl N-acetyl [3-D glucosaminide (Sigma) in 0.1 M citrate buffer (pH 5.0), was added to each well and incubated for 90 minutes at 37° C. The reaction was terminated with a mixture of 50 mM glycine (Sigma) and 5 mM EDTA (Sigma) (pH 10.4). The absorbance was read at 405 nm on a multiwell plate reader.
Cell attachment is one of the earliest cell anchorage responses to substrates. To examine if the nanoscale presentation of ligand could alter early cell binding and attachment events, fibroblasts were seeded on ligand-adsorbed substrates of three different ligand densities with different presentations (FIG. 7a). […] Cells were incubated for 1 hour, unbound cells were washed, and the number of adherent cells was quantified using the hexosaminidase assay. […]

fibroblasts [5] = assay: Cell morphology on ligand-ANC (FITC-phalloidin); format: cell-based, human
Experimental: Cell morphology was examined as a function of differential ligand presentation and nanocarrier size at two time points. Passively adsorbed substrates were prepared as described above. Fibroblasts that were serum deprived at least 12 hours before hand were seeded in serum free media for 1 or 5 hours at 37° C. Substrates were washed after the designated incubation time, and fixed with 3.7% formaldehyde for 15 minutes at room temperature. Substrates were washed again and permeabilized with Triton-X 100 for 15 minutes at room temperature. Substrates were washed, blocked with 1% BSA for 15 minutes at room temperature, washed again, and stained with FITC phalloidin (Molecular Probes) for 20 minutes. Substrates were washed and stored at 4° C. until image acquisition. Images were acquired with a Leica TCS SP/2 at 63×.
The effects of ligand presentation on cytoskeletal morphology were examined by labeling F-actin at two different time points (FIG. 7b). In that experiment, cell morphology was examined of fibroblasts cultured at the optimal ligand density for cell attachment (2.2 μg/cm^2) at 1 hour (left column) and 5 hours (right column) using FITC-phalloidin.

[6] = tested on: Human foreskin fibroblasts; assay: Imaging of fibronectin matrix assembly as a function of carrier size and ligand density; format: cell-based; conditions: serum-free, 24 hours
Experimental: Substrates with equal levels of ligand but differential presentation were adsorbed in 8-well Labtek chamber slides overnight at 4° C. Substrates were then washed generously with PBS and blocked with BSA for 1 hour at 37° C. Fibroblasts were serum-starved at least 12 hours prior to trypsinization and re-plated at a density of 35,000 cells per well in serum free media. Cells were then cultured for 24 hours at 37° C. After 24 hour incubation, media was removed and substrates were washed with DPBS with calcium and magnesium. Cells were fixed with 1% formaldehyde for 9 minutes and washed with DPBS with calcium and magnesium. Cells were permeabilized with Triton-X 100 for 15 minutes and washed with DPBS with calcium and magnesium and blocked with 1% BSA for 1 hour at 37° C. Substrates were washed and primary antibody IST-4 (Sigma) for fibronectin that binds to the 5th type III repeat of human plasma fibronectin was incubated at a 1:100 dilution in PBS overnight at 4° C. Substrates were washed and incubated with FITC-conjugated donkey anti-mouse IgG (Jackson Immunolabs, West Grove, Pa.) at a 1:200 dilution for 30 minutes at room temperature, and were then washed and incubated with Texas-red phalloidin (Molecular Probes, Eugene, Oreg.) for 20 minutes at room temperature. Substrates were washed and stored at 4° C. until image acquisition. […]

In the case of C[C@@H](N)[C@H]1CC[C@H](C(=O)Nc2ccncc2)CC1 [Y27632], the “effect on FNf-ANP induced matrix assembly by HFF” value ([1]; 3 μM Y27632 added 2 hours after seeding on FNf-ANP 1.70 μg/cm^2, overnight) is reported as “abrogated” and the “fibronectin matrix fibrils in the extracellular space compared to control conditions” value ([1]; HFF on FNf-ANP treated with Y27632, image analysis) is reported as “significantly decreased levels”.

With “FNf: recombinant GST fusion of fibronectin fragment comprising repeats III9 and III10, adsorbed alone as comparator” the “cell spreading (morphology)” value ([2]; 45 minutes post seeding) was “minimally spread”, the cell morphology ([2]; 5 hours of culture, F-actin staining) was “flattened, well-spread appearance” and the “shape factor, (perimeter)^2/(4π(area))” value ([2]; 5 hours, about 25 cells per condition, all FNf densities) was “around 4”. The cell attachment ([3]; 60 minutes, lowest amount of ligand tested) was “no detectable attachment”, the “cellular adhesion over the FNf concentration range” value ([3]; adsorbed FNf up to the highest concentration) was “no significant increase in cellular adhesion” and the “deposition of fibronectin into the ECM when presented via the culture medium” value ([1]; HFF on bare coverglass, ligand added to media, overnight) was “not sufficient”. For the same compound, the “cell attachment at a specific ligand density” value (fibroblasts [4]) was “significant attachment, but to a lesser degree”, the “cell spreading / morphology at 1 hour” value (fibroblasts [5]; 2.2 μg/cm^2, 1 hour) was “some filopodial projections” and the “cell morphology at 5 hours” value (fibroblasts [5]; 2.2 μg/cm^2, 5 hours) was “well-spread with well defined stress fibers”.

“whole length mouse fibronectin: whole length mouse fibronectin (Innovative Research) adsorbed as control substrate” was tested, and the “fibronectin fibrils on control substrates” value [6] was “Fibrils were not seen” and the “cell spreading / morphology on control substrates” value (fibroblasts [5]; control substrates) was “polarized morphology consistent with migrating cells”.
